# In patent US9416128B2, “Fused heterocyclic compounds as ion channel modulators” (Gilead Sciences, Inc., priority 2013, dated 2016):
# Assays:
# [1] = target: hNaV1.1 (SCN1A) (Homo sapiens, UniProt P35498); assay: Use-dependent inhibition of the CNS NaV1.1 sodium channel; assay type: cell-based; conditions: % inhibition, 25 Hz; for inhibition at 1 µM: use-dependent block at 1 uM, read-out: Nav1.1 UDB 25 Hz 1 uM; for inhibition at 10 µM: use-dependent block at 10 uM, read-out: Nav1.1 UDB 25 Hz 10 uM
# Protocol: HEK-293 cells stably expressing wild-type (WT) hNaV1.1 (SCN1A, NCBI# AB09354) were obtained from Millipore (Cat. # CYL3009) were used to record INa. Cells are maintained with standard tissue culture procedures and stable channel expression is maintained with 400 ug/mL G418 in the culture medium. Unless otherwise noted, all reagents are purchased from Sigma-Aldrich (St Louis, Mo., U.S.A.).
# Assays measuring Use-Dependent Block (UDB) of NaV1.2 are performed on an automated electrophysiology platform, QPatch 16X or QPatch HT (Sophion Bioscience, Copenhagen, Denmark), using the whole cell patch clamp technique to measure currents through the cell membrane. Series resistance compensation is set to 100% and series resistance and whole-cell compensation are performed automatically. Currents stored in the Sophion Bioscience Oracle database (Sophion Bioscience, Copenhagen, Denmark). Analysis is performed using QPatch Assay software and data are compiled in Excel 2010 (Microsoft, Seattle, Wash., U.S.A.).
# The internal (pipette) solution consists of (in mM) 105 CsF, 10 NaF, 20 CsCl, 2 EGTA, 10 HEPES, 10 Dextrose with a pH of 7.35 and osmolarity of 300 mOsmol/kg. The external (bath) solution contains in (mM): 145 NaCl, 4 KCl, 1.8 CaCl2, 1 MgCl2, 10 dextrose, 10 HEPES, with a pH of 7.35 and osmolarity of 310 mOsmol/kg. Experiments are carried out at 23-25° C.
# Compound stocks are routinely made by the Gilead Sample Bank in vials to 10 mM in dimethyl sulfoxide (DMSO). In some cases, when compounds are not soluble in DMSO, they are made in 100% ethanol. Stocks are sonicated as necessary. […]
# Cells are allowed to stabilize for 10 min after establishment of the whole-cell configuration before current is measured. The test compound is applied 2 times at 60 second intervals. After the second compound addition, a 200 second wait period was imposed to allow for equilibration.
# Leak currents are subtracted by using an online P/4 procedure and all currents are low-pass Bessel filtered at 5 kHz and digitized at […].
# Use-dependent block of NaV1.2 peak current is measured during pulse number 20 of a voltage pulse train (0 mV, 20 ms, 20 pulses, 25 Hz) from a holding potential of −120 mV. Currents are normalized to the peak current recorded in response to the first pulse in each frequency train. The voltage protocol for UDB was performed in the absence and presence of compound and percentage inhibition was calculated with respect to the compound free condition. Results are presented as mean percentage inhibition and data analysis is performed using QPatch Assay Software 4.0, and Excel 2002 (Microsoft, Seattle, Wash., U.S.A.).
# [2] = target: wild-type human cardiac sodium channel, hNaV 1.5 (Late INa) (Homo sapiens, UniProt Q14524); assay: Late INa screening assay (whole cell patch clamp, QPatch, Tefluthrin-induced late current); assay type: cell-based; conditions: HEK293, % inhibition (percent block of late INa) at 1 uM; HEK293 hNaV1.5; 10 μM Tefluthrin; read-out: Nav1.5 Late INa 1 uM
# Protocol: The cardiac late sodium current (Late INa) and peak sodium current (Peak INa) assays are performed on an automated electrophysiology platform, QPatch 16X or QPatch HT (Sophion Bioscience, Copenhagen, Denmark) using the whole cell patch clamp technique to measure currents through the cell membrane. The assay uses an HEK293 (human embryonic kidney) cell line heterologously expressing the wild-type human cardiac sodium channel, hNaV 1.5, purchased from Millipore (Billerica, Mass.). No beta subunits were coexpressed with the Na channel alpha subunit. Cells are maintained with standard tissue culture procedures and stable channel expression is maintained with 400 μg/mL Geneticin in the culture medium. Experiments are carried out at 23-25° C.
# For both the Late INa and Peak INa assays, series resistance compensation is set to 100% and series resistance and whole-cell compensation are performed automatically. Currents are digitized at 25 kHz and low-pass filtered at 5 kHz and stored in the Sophion Bioscience Oracle database (Sophion Bioscience, Copenhagen, Denmark). Analysis is performed using QPatch Assay software and data are compiled in Excel 2010 (Microsoft, Seattle, Wash., U.S.A.).
# Compound stocks are routinely made by the Gilead Sample Bank in vials to 10 mM in dimethyl sulfoxide (DMSO). In some cases, when compounds are not soluble in DMSO, they are made in 100% ethanol. Stocks are sonicated as necessary. The extracellular solution for screening Late INa is composed of: 140 mM NaCl, 4 mM KCl, 1.8 mM CaCl2, 1 mM MgCl2, 10 mM HEPES and 10 mM Dextrose with pH adjusted to 7.35 using NaOH. The intracellular solution contains: 105 mM CsF, 20 mM CsCl, 10 NaF, 2 mM EGTA, 10 mM HEPES and 10 mM Dextrose with pH adjusted to 7.35 with CsOH. Compounds are diluted in extracellular solution using a MicroLab Nimbus (Hamilton Robotics, Reno, Nev.) to between 0.3 and 3 μM in glass vials and transferred to glass well plates before robotic addition to the cells. The 0 mM Na extracellular solution (0Na-ECF) used at the end of each experiment for the Late INa and Peak INa assays to measure baseline current contains: 140 Choline-Cl; 4 mM KCl, 1.8 mM CaCl2; 1 mM MgCl2; 10 mM HEPES and 10 mM Dextrose with pH was adjusted to 7.35 with CsOH.
# For the Late INa assay, sodium channels are activated every 10 seconds (0.1 Hz) by depolarizing the cell membrane to −20 mV for 250 milliseconds (ms) from a holding potential of −120 mV.
# Compounds were tested to determine their activity in blocking the late sodium current. Late INa was generated by adding 10 μM Tefluthrin (pyrethroid) to the extracellular solution. For the purposes of the screening, Late INa is defined as the mean current between 240 ms and 265 ms during the voltage step to −20 mV. After establishing the whole cell recording configuration, Late INa activator is added to each well 4 times over a 15 minute period so that the late component of the Na current reaches a stable value. Compounds were then added (typically at 0.3 or 1 μM), in the presence of the Late INa activator, with 3 additions over the course of 5 minutes. Measurements were made at the end of exposure to the third compound addition and values were normalized to the current level when all Na^+ was removed from the extracellular solution after two additions of 0Na-ECF.
# Results are reported as percent block of late INa and results were analyzed by incorporating rundown correction for the Late INa.
# wild-type human cardiac sodium channel, hNaV 1.5 (Late INa), sequence (Q14524 whole entry): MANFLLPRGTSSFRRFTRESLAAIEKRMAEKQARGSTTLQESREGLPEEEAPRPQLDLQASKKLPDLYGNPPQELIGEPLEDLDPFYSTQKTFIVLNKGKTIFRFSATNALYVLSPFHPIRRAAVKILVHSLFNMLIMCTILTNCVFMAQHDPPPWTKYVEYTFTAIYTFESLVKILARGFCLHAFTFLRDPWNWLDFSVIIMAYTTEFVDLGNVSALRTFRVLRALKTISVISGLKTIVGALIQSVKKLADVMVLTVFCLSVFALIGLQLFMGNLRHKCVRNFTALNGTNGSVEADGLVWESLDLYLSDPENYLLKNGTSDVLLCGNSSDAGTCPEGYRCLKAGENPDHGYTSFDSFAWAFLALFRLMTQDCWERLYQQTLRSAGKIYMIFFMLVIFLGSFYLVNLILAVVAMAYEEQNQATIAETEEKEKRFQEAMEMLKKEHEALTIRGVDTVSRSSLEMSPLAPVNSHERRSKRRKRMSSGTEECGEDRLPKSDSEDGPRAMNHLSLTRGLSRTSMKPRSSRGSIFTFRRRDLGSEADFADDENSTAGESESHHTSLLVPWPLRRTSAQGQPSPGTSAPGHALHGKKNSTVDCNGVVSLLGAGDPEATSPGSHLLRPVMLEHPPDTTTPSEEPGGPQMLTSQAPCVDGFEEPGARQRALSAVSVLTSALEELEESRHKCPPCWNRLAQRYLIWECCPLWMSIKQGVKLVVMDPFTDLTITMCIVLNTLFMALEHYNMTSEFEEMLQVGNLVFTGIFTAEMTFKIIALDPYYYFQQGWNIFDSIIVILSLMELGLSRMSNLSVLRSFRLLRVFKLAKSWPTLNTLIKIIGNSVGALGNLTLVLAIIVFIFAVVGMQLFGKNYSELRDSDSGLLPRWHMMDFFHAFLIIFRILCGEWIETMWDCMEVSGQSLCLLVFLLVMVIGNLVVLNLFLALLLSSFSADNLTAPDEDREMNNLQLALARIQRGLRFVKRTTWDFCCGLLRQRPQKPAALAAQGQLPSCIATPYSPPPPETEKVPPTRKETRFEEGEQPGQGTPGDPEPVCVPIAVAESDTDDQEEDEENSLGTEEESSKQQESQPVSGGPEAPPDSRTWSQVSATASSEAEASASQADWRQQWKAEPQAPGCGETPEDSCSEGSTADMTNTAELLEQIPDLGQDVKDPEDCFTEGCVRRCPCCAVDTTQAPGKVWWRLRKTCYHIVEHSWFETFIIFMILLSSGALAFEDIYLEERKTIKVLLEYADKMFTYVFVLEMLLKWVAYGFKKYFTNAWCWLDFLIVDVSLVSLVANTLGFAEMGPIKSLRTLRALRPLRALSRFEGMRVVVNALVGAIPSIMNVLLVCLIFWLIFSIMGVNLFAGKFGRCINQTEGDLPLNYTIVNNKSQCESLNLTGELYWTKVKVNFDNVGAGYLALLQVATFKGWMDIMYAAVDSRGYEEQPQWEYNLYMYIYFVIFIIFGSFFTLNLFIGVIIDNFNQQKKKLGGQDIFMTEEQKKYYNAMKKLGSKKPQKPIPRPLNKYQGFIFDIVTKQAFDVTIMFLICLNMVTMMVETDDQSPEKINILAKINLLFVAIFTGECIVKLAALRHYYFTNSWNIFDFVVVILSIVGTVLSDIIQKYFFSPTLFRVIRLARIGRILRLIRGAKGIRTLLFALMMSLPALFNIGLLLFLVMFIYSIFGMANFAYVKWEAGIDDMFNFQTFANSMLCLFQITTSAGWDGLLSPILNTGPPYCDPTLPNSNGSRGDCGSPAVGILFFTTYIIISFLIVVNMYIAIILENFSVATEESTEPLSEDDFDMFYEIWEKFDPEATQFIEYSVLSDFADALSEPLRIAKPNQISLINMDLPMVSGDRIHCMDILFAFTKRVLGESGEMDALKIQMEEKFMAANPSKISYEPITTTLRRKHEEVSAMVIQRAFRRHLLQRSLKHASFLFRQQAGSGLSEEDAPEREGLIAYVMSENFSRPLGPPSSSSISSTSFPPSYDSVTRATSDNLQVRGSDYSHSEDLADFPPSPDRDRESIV
Structure (SMILES),inhibition at 1 µM [1],inhibition at 10 µM [1],inhibition at 1 µM [2]
"O=C1Oc2ccc(-c3ccc(OC(F)(F)F)cc3)cc2CN1Cc1ncccn1 [Example 3, 3-(pyrimidin-2-ylmethyl)-6-(4-(trifluoromethoxy)phenyl)-3,4-dihydro-2H-benzo[e][1,3]oxazin-2-one]",42.6%,91.6%,51.8%
"O=C1Oc2ccc(-c3ccc(C(F)(F)F)cc3)cc2CN1Cc1ncccn1 [Example 4, 3-(pyrimidin-2-ylmethyl)-6-(4-(trifluoromethyl)phenyl)-3,4-dihydro-2H-benzo[e][1,3]oxazin-2-one]",49.9%,76.5%,53.9%
"Cc1nccc(CN2Cc3cc(-c4ccc(OC(F)(F)F)cc4)ccc3OC2=O)n1 [Example 15, 3-((2-methylpyrimidin-4-yl)methyl)-6-(4-(trifluoromethoxy)phenyl)-3,4-dihydro-2H-benzo[e][1,3]oxazin-2-one]",,,30%
"CC1c2cc(-c3ccc(C(F)(F)F)cc3)ccc2OC(=O)N1Cc1ncccn1 (stereo not drawn) [Example 49, 4-methyl-3-(pyrimidin-2-ylmethyl)-6-(4-(trifluoromethyl)phenyl)-3,4-dihydro-2H-benzo[e][1,3]oxazin-2-one]",21.5%,82.4%,41.5%
"CC1c2cc(-c3cccc(Oc4ccccc4)c3)ccc2OC(=O)N1Cc1ncccn1 (stereo not drawn) [Example 51, 4-methyl-6-(3-phenoxyphenyl)-3-(pyrimidin-2-ylmethyl)-3,4-dihydro-2H-benzo[e][1,3]oxazin-2-one]",,,41.6%
"O=C1Oc2cc3c(cc2CN1Cc1ncccn1)-c1ccc(OC(F)(F)F)cc1C3 [Example 60, 3-(pyrimidin-2-ylmethyl)-8-(trifluoromethoxy)-3,4-dihydrofluoreno[3,2-e][1,3]oxazin-2(10H)-one]",,,11.2%
